Reference: the NIST ThermoML archive (doi:10.1016/j.tca.2004.11.015)

Conditions: 101.33 kPa, Liquid, Vibrating tube method

NCCO [2-aminoethan-1-ol]
Conditions | mass density [kg/m3]
281.15 K | 1025.55
283.15 K | 1023.99
285.15 K | 1022.42
287.15 K | 1020.84
289.15 K | 1019.26
291.15 K | 1017.68
293.15 K | 1016.1
295.15 K | 1014.52
297.15 K | 1012.94
299.15 K | 1011.35
301.15 K | 1009.76
303.15 K | 1008.17
305.15 K | 1006.58
307.15 K | 1004.99
309.15 K | 1003.4
311.15 K | 1001.8
313.15 K | 1000.21
315.15 K | 998.6
317.15 K | 997
319.15 K | 995.4
321.15 K | 993.79
323.15 K | 992.19
325.15 K | 990.58
327.15 K | 988.96
329.15 K | 987.34
331.15 K | 985.72
333.15 K | 984.1
335.15 K | 982.48
337.15 K | 980.85
339.15 K | 979.21
341.15 K | 977.58
343.15 K | 975.94
345.15 K | 974.3
347.15 K | 972.65
349.15 K | 970.99
351.15 K | 969.34
353.15 K | 967.68

CO [methanol]
Conditions | mass density [kg/m3]
283.15 K | 800.67
288.15 K | 795.99
293.15 K | 791.29
298.15 K | 786.58
303.15 K | 781.86
308.15 K | 777.1
313.15 K | 772.32
318.15 K | 767.52
323.15 K | 762.67
328.15 K | 757.77
333.15 K | 752.83
